Data on 19 compounds can be found in ChEMBL document CHEMBL1126867, “Antipicornavirus activity of tetrazole analogues related to disoxaril” (1993).

≈ marks a conversion by molar mass, not a printed value. Calls of active or inactive are those of the source. No cut-off for these calls is given here.

Assay [1] concerns Human rhinovirus 1A. The assay is described as follows: In vitro antiviral activity against human rhinovirus-1A using plaque reduction assay. The format is functional. (In general: In a plaque reduction assay, fewer plaques than in the control indicate reduced infectivity or spread.)
For assay [2], the system named is Human rhinovirus sp. The experiment in a line: (§1) Minimum inhibitory concentration which inhibits 80% of serotypes was determined. The format is functional.
Assay [3] concerns rhinovirus B14. The assay is described as follows: In vitro antiviral activity against human rhinovirus-14 using plaque reduction assay. The format is functional, human rhinovirus type 14. Conditions: Rhinovirus B.
Assay [4] has as its system Human rhinovirus 1A. The assay is described as follows: In vitro antiviral activity against human rhinovirus-1A using plaque reduction assay; not active. The format is functional, organism-based.
The subject of assay [5] is Human rhinovirus sp. The assay is described as follows: In vitro antiviral activity against human rhinovirus 2 serotype. The format is functional.
The test system of assay [6] is Human rhinovirus sp. The assay is described as follows: In vitro antiviral activity against human rhinovirus 89 serotype. The format is functional.
For assay [7], the system named is Human rhinovirus sp. The experiment in a line: In vitro antiviral activity against human rhinovirus 1B serotype. The format is functional.
The nature of assay [8]: as §1. The format is functional, human rhinovirus-1a, 14. Conditions: Human rhinovirus sp.
Assay [9] concerns Human rhinovirus sp. The assay is described as follows: (§2) In vitro antiviral activity against human rhinovirus 1A serotype. The format is functional.
In assay [10] the test system is Human rhinovirus sp. The assay is described as follows: In vitro antiviral activity against human rhinovirus-22 serotype. The format is functional.
Assay [11] concerns Human rhinovirus sp. The assay is described as follows: In vitro antiviral activity against human rhinovirus-15 serotype. The format is functional.
The test system of assay [12] is Human rhinovirus sp. The experiment in a line: In vitro antiviral activity against human rhinovirus 50 serotype. The format is functional.
The test system of assay [13] is Human rhinovirus sp. The experiment in a line: In vitro antiviral activity against human rhinovirus 67 serotype. The format is functional.
In assay [14] the test system is Human rhinovirus sp. The experiment in a line: In vitro antiviral activity against human rhinovirus 6 serotype. The format is functional.
Assay [15] concerns Human rhinovirus sp. The assay is described as follows: In vitro antiviral activity against human rhinovirus-30 serotype. The format is functional.
For assay [16], the system named is Human rhinovirus sp. The experiment in a line: In vitro antiviral activity against human rhinovirus-21 serotype. The format is functional.
Assay [17] has as its system Human rhinovirus sp. The assay is described as follows: In vitro antiviral activity against human rhinovirus-25 serotype. The format is functional.
In assay [18] the test system is Human rhinovirus sp. The experiment in a line: In vitro antiviral activity against human rhinovirus 86 serotype. The format is functional.
The test system of assay [19] is Human rhinovirus sp. The assay is described as follows: In vitro antiviral activity against human rhinovirus-41 serotype. The format is functional.
Assay [20] has as its system Human rhinovirus sp. The experiment in a line: In vitro antiviral activity against human rhinovirus 14 serotype. The format is functional.
In assay [21] the test system is Human rhinovirus 1A. The description is as §2. The format is functional.
The test system of assay [22] is Human rhinovirus 1B (rhinovirus A). The assay is described as follows: In vitro antiviral activity against human rhinovirus 1B serotype.
In assay [23] the test system is rhinovirus B14. The experiment in a line: In vitro antiviral activity against human rhinovirus-14 using plaque reduction assay; not active. Conditions: human rhinovirus type 14. The format is functional, organism-based.

For the compound `CCOc1cc(CCCOc2c(C)cc(-c3nnn(C)n3)cc2C)on1`, the MIC50 in assay [1] is 0.15 µM (≈ 0.0536 µg/mL); in [3], 0.1 µM (≈ 0.0357 µg/mL). For the same compound, the MIC80 in [2] was found to be 0.7 µM (≈ 0.25 µg/mL).
As to `Cc1cc(CCCCCOc2c(C)cc(-c3nnn(CCO)n3)cc2C)on1`, in [3], the MIC50 amounted to 4.35 µM (≈ 1.68 µg/mL). Also, the MIC50 entry in [4] was “inactive”.
On to `Cc1cc(CCCOc2c(C)cc(-c3nnn(C)n3)cc2C)on1`, for which the MIC in assay [5] was found to be 0.02 µM (≈ 0.00655 µg/mL); in assay [6], 0.01 µM (≈ 0.00327 µg/mL); in assay [7], 0.03 µM (≈ 0.00982 µg/mL); in assay [9], 0.11 µM (≈ 0.036 µg/mL); in assay [10], 0.05 µM (≈ 0.0164 µg/mL); in assay [11] it was 0.18 µM (≈ 0.0589 µg/mL). In addition, the MIC in assay [12] was determined as 0.23 µM (≈ 0.0753 µg/mL); in assay [13] it was 0.14 µM (≈ 0.0458 µg/mL); in [14] it was 2.2 µM (≈ 0.72 µg/mL); in assay [2], 0.4 µM (≈ 0.131 µg/mL); in [15], 0.07 µM (≈ 0.0229 µg/mL); in assay [16], 0.02 µM (≈ 0.00655 µg/mL). The MIC in [17] is 0.06 µM (≈ 0.0196 µg/mL); in [18] it was 2.05 µM (≈ 0.671 µg/mL); in [19], 0.4 µM (≈ 0.131 µg/mL); in assay [20] it was 1.7 µM (≈ 0.557 µg/mL). For the same compound, in assay [8], the MIC80 was 0.4 µM (≈ 0.131 µg/mL). Besides, the MIC50 in assay [1] is 0.11 µM (≈ 0.036 µg/mL); in assay [3], 1.74 µM (≈ 0.57 µg/mL).
For the compound `Cc1cc(CCCCCOc2c(Cl)cc(C3=NCCO3)cc2Cl)on1` [WIN-54954], the MIC in [5] stood at 0.02 µM (≈ 0.00767 µg/mL); in assay [6], 0.02 µM (≈ 0.00767 µg/mL); in [21], 2.51 µM (≈ 0.962 µg/mL); in assay [10] it was 0.02 µM (≈ 0.00767 µg/mL); in assay [11], 0.41 µM (≈ 0.157 µg/mL); in assay [12] it was 0.3 µM (≈ 0.115 µg/mL). For the same compound, the MIC in assay [13] is 0.18 µM (≈ 0.069 µg/mL); in assay [14] it was 0.23 µM (≈ 0.0882 µg/mL); in [2], 0.41 µM (≈ 0.157 µg/mL); in assay [15], 0.09 µM (≈ 0.0345 µg/mL); in assay [16], 0.02 µM (≈ 0.00767 µg/mL); in assay [17], 0.29 µM (≈ 0.111 µg/mL). The MIC in [18] came to 0.21 µM (≈ 0.0805 µg/mL); in assay [19] it was 0.89 µM (≈ 0.341 µg/mL); in assay [22], 0.17 µM (≈ 0.0652 µg/mL); in assay [20] it was 1.2 µM (≈ 0.46 µg/mL).
With `CCn1nnc(-c2cc(C)c(OCCCc3cc(C)no3)c(C)c2)n1`, the MIC50 in assay [1] came to 0.67 µM (≈ 0.229 µg/mL); in assay [3], 0.8 µM (≈ 0.273 µg/mL). In [2], this compound showed an MIC80 of 0.25 µM (≈ 0.0854 µg/mL).
In the same order, the values of `Cc1cc(-c2nnn(C)n2)cc(C)c1OCCCc1cc(CCCO)no1` are 0.2 µM (≈ 0.0743 µg/mL), 0.17 µM (≈ 0.0631 µg/mL) and 0.4 µM (≈ 0.149 µg/mL).
Regarding `Cc1cc(-c2nnn(C)n2)cc(C)c1OCCCc1cc(C2CC2)no1`, the MIC50 in assay [1] is 0.19 µM (≈ 0.0672 µg/mL); in [3], 0.48 µM (≈ 0.17 µg/mL). The same compound registered an MIC80 in assay [2] of 0.48 µM (≈ 0.17 µg/mL).
In the case of `Cc1cc(CCCCCOc2c(C)cc(-c3nnn(C)n3)cc2C)on1`, the figures for the MIC50 in assay [1] and in assay [3] were 0.34 µM (≈ 0.121 µg/mL) and 0.45 µM (≈ 0.16 µg/mL), respectively. This compound had an MIC80 in assay [2] of 0.39 µM (≈ 0.139 µg/mL).
In the same order, the values of `CCCOc1cc(CCCOc2c(C)cc(-c3nnn(C)n3)cc2C)on1` are 0.39 µM (≈ 0.145 µg/mL), 0.08 µM (≈ 0.0297 µg/mL) and 0.6 µM (≈ 0.223 µg/mL).
`Cc1cc(-c2nnn(C)n2)cc(C)c1OCCCCCc1cc(COCOCCO)no1`: the figures for the MIC50 in assay [1] and in assay [3] were 4.03 µM (≈ 1.8 µg/mL) and 0.06 µM (≈ 0.0267 µg/mL), respectively.
Consider `COc1cc(CCCOc2c(C)cc(-c3nnn(C)n3)cc2C)on1`, for which the MIC50 worked out at 0.11 µM (≈ 0.0378 µg/mL) in assay [1] and 1.4 µM (≈ 0.481 µg/mL) in assay [3]. Further, the MIC80 in assay [2] amounted to 0.33 µM (≈ 0.113 µg/mL).
In the same order, the values of `Cc1cc(CCCCOc2c(C)cc(-c3nnn(C)n3)cc2C)on1` are 0.1 µM (≈ 0.0341 µg/mL), 2.43 µM (≈ 0.83 µg/mL) and 0.66 µM (≈ 0.225 µg/mL).
For the compound `Cc1cc(-c2nnn(C)n2)cc(C)c1OCCCCCc1cc(COCCOCCOCCO)no1`, the MIC50 is 4.9 µM (≈ 2.47 µg/mL) in assay [1] and 1.05 µM (≈ 0.529 µg/mL) in assay [3].
Take `COC(=O)Cn1nnc(-c2cc(C)c(OCCCCCc3cc(C)no3)c(C)c2)n1`: the MIC50 entry in assay [23] and in assay [4] was “inactive” each time.
Regarding `Cc1cc(-c2nnn(C)n2)cc(C)c1OCCCc1cc(CC(C)O)no1` (stereo not given), the MIC50 in [1] worked out at 0.71 µM (≈ 0.264 µg/mL); in assay [3], 1.8 µM (≈ 0.669 µg/mL).
As to `CCCn1nnc(-c2cc(C)c(OCCCc3cc(C)no3)c(C)c2)n1`, the MIC50 came to 6.5 µM (≈ 2.31 µg/mL) in assay [1] and 1.6 µM (≈ 0.569 µg/mL) in assay [3]. This compound also displayed an MIC80 in assay [2] of 1.27 µM (≈ 0.451 µg/mL).
In the same order, the values of `Cc1cc(-c2nnn(C)n2)cc(C)c1OCCCc1cc(CC(C)C)no1` are 0.46 µM (≈ 0.17 µg/mL), 0.32 µM (≈ 0.118 µg/mL) and 1.5 µM (≈ 0.554 µg/mL).
On to `CCCCc1cc(CCCOc2c(C)cc(-c3nnn(C)n3)cc2C)on1`, for which the results for the MIC50 in assay [1] and in assay [3] were 0.54 µM (≈ 0.2 µg/mL) and 0.11 µM (≈ 0.0406 µg/mL), respectively. This compound gave an MIC80 in [2] of 0.54 µM (≈ 0.2 µg/mL).
With `COCCOCOCc1cc(CCCCCOc2c(C)cc(-c3nnn(C)n3)cc2C)on1`, the results for the MIC50 in [1] and in assay [3] were 2.89 µM (≈ 1.33 µg/mL) and 0.33 µM (≈ 0.152 µg/mL), respectively.
